Assay results taken from patent publication US8993559B2, “Use of ibogamine congeners for treating obesity” (Albany Medical College, priority 2008, dated 2015).
Entries after “also recorded” stand apart in the source; their conditions may differ.

Assays:
rats [1] = assay: Local administration of 18-MC into brain sites: drug self-administration and responding for sucrose; type: in vivo, rat
Text: FIG. 8 is a graph showing effects of local infusion of 18-MC into the basolateral amygdala on methamphetamine self-administration and responding for sucrose. Baseline methamphetamine infusions averaged (S.E.M.) 20.2±0.9 while baseline responding for sucrose averaged (S.E.M.) 27.1±2.1. Each data point represents the mean (S.E.M.) percent of baseline of 6-9 rats. (*=p<0.05-0.01).
Although the medial habenula and the interpeduncular nucleus are the brain regions having the highest concentrations of α3β4 nicotinic receptors, moderate densities of these receptors are localized in the ventral tegmental area, in the basolateral amygdala, and in the dorsolateral tegmentum (caudal pedunculopontine and laterodorsal tegmental nuclei). […] The basolateral amygdala has also been very much implicated in reward-related phenomena, and associated with both stimulants and sucrose. Accordingly, to further investigate brain sites mediating 18-MC's effects on drug self-administration, it was determined if local administration of 18-MC into the dorsolateral tegmentum or basolateral amygdala would alter drug self-administration, the other three sites having already been examined. As done previously, sucrose (15%) was used as a control, non-drug reinforcer. Previously, local administration of 18-MC had no effect on responding for sucrose regardless of whether it was infused into the medial habenula, interpeduncular nucleus, or ventral tegmental area. […] The neural substrates for 18-MC's effects on morphine and sucrose self-administration clearly appear to be different, although both may involve α3β4 nicotinic receptors.

rats [2] = conditions: cited from earlier work
[3] = Weight gain of rats on high fat or low fat diet; type: in vivo, rat
Protocol: FIG. 12 is a graph showing effects of 18-MC (20 mg/kg i.p.) on weight gain of rats. Each data point represents daily weight (g, ±S.E.M.) of rats having access to high fat (HF) or low fat (LF) diet and water, and treated with 18-MC or vehicle. The black bar indicates the duration of treatment with 18-MC: =<0.05, 18-MC vs vehicle.
The development of obesity in rats maintained on a high fat diet is perhaps the commonly used animal model of diet-induced obesity.

α3β4 nicotinic receptors = α3β4 nicotinic receptors (Homo sapiens, UniProt P30926+P32297); conditions: cited from earlier work
α3β4 nicotinic receptors, sequence (P32297 32-505): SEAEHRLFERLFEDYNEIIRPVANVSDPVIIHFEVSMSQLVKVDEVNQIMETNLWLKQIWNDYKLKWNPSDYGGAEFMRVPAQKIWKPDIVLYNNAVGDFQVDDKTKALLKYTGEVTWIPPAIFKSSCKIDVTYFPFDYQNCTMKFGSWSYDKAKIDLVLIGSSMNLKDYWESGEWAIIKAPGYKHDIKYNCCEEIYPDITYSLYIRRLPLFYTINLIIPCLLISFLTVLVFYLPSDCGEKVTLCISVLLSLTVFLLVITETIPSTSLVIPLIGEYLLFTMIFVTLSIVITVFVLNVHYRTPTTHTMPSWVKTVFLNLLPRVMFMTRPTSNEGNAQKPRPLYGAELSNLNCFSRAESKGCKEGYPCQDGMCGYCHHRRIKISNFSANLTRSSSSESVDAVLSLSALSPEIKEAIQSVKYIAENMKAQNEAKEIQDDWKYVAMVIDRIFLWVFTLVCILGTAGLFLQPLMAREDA
α3β4 nicotinic receptors, sequence (P30926 22-498): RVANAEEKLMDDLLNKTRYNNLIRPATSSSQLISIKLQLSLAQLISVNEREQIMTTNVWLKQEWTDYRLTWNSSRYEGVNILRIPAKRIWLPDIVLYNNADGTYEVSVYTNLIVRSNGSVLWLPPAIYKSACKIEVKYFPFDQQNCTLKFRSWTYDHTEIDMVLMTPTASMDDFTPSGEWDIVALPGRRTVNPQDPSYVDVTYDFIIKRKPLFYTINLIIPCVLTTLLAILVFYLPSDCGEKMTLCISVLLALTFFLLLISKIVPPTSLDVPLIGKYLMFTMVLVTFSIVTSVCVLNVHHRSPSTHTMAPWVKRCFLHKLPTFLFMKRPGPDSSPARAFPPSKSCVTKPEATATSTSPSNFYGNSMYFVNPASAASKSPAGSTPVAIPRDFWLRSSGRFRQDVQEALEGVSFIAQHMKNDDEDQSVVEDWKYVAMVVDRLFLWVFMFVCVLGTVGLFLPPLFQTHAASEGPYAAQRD

[4] = Weight gain paradigm: water-drinking animals; type: in vivo, rat; conditions: 18-MC 20 mg/kg i.p. daily for two weeks
Protocol: Animals were allowed unlimited access to regular chow and water and were injected daily with 18-MC (20 mg/kg, i.p.) or vehicle for two weeks. Body weights were recorded immediately prior to injections and were also recorded for an additional week upon cessation of 18-MC treatment.
For the weight gain experiment, the data for all four treatment groups from days 1-21 were analyzed using two-way ANOVA, with treatment and time as main factors. Furthermore, the data for the first two weeks and the last week for water-vehicle, water-18-MC and sucrose 18-MC were analyzed separately using two-ANOVA, with treatment and time as main factors. Post-hoc comparison tests (Fisher LSD tests) were conducted when appropriate.

Sprague-Dawley rats = assay: Operant sucrose self-administration procedure; type: in vivo, rat
Protocol: Naïve female Sprague-Dawley rats (230-270 g; Taconic, Germantown, N.Y.) were housed individually and maintained on a normal 12 hr light cycle (light on/off at 7 a.m./7 p.m.) in the colony room. For all experiments, food (normal chow) and water were provided ad libitum. The experiments were conducted in accordance with the “Guide for the Care and Use of Laboratory Animals” (National Academy of Sciences, 1996).
Rats were water deprived for 23 h so that shaping of the bar-press response could initially be accomplished by training rats to bar-press for water. Thereafter, in non-deprived rats, oral sucrose self-administration testing began with a 16-h nocturnal session followed by daily 1-h sessions, 5 days (Monday-Friday) a week. Rats were allowed access to two levers mounted 15 cm apart on the front wall of each operant test chamber (Coulbourn Instruments, Allentown, Pa.). A response on either of the two levers produced a sucrose reward (15% solution; 0.01 ml) on a FR1 TO 20 (fixed ratio 1 with a 20 sec time-out) schedule. After rates of sucrose self-administration stabilized (20% variation from one day to the next across 5 days), usually after 2 weeks of testing, 18-MC (10-40 mg/kg) or vehicle was administered i.p. 15 minutes before a test session. Each rat typically received two or three different treatments (in randomized order) spaced at least one week apart.
The operant self-administration data were analyzed by two-way ANOVA with reward (sucrose vs. water) and dose of 18-MC as the main factors. Subsequent post hoc tests (Newman-Keuls) compared the effects of 18-MC to baseline.

SMILES: COCC[C@H]1CC2CN3CCc4c([nH]c5ccccc45)[C@](C(=O)OC)(C2)[C@H]13 [18-MC, 18-methoxycoronaridine]
- responding for sucrose (rats [1]; infused into the medial habenula, interpeduncular nucleus, or ventral tegmental area (previous work)): no effect
- methamphetamine self-administration (rats [1]; local administration into the basolateral amygdala): decreased
- responding for sucrose (rats [1]; local administration into the basolateral amygdala, 15% sucrose): decreased
- morphine or methamphetamine self-administration (rats [1]; local administration into the dorsolateral tegmentum): no effect
- responding for sucrose (rats [1]; local administration into the dorsolateral tegmentum, 15% sucrose): decreased
- signs of acute opioid withdrawal (rats [2]): alleviate
- excessive weight gain attributable to the high fat diet ([3]; 18-MC 20 mg/kg i.p. daily for two weeks, 45 kcal % fat): totally prevented
- decrease of weights of fat depots in HF rats ([3]; 18-MC 20 mg/kg i.p. for two weeks, high fat diet): about 35%
- decrease of weights of fat depots in LF rats ([3]; 18-MC 20 mg/kg i.p. for two weeks, low fat diet (10 kcal % fat)): not in LF rats
- action at α3β4 nicotinic receptors (α3β4 nicotinic receptors): selective antagonist; also recorded: noncompetitive antagonist
- body weight of rats maintained on water and chow [4]: no effect
- effect on sucrose responding (Sprague-Dawley rats; 18-MC 20 mg/kg i.p., 10, 15 and 20% sucrose): no significant effect
- decrease of sucrose responding (Sprague-Dawley rats; 18-MC 20 mg/kg i.p., not significant): 10-20%
- operant responding for sucrose (Sprague-Dawley rats; 18-MC 40 mg/kg i.p., 15 min before 1-h session, 15% sucrose): reduced; also recorded: decreased
- operant responding for water (Sprague-Dawley rats; 18-MC up to 40 mg/kg i.p., water 0.01 ml/barpress): no effect
